Data as given in patent US10066159B2, “Composite nanoparticles including a phthalic acid derivative” (3M INNOVATIVE PROPERTIES COMPANY, priority 2013, dated 2018).

Test: Solubility in toluene
Type: physicochemical
Details: based on a total weight of the solution

CCCCCCOc1ccc(C(=O)O)c(C(=O)O)c1 [Example 1, 4-hexyloxyphthalic Acid]
solubility in toluene: greater than 1 weight percent

CCCCCCCCOc1cc(C(=O)O)c(C(=O)O)cc1OCCCCCCCC [Example 2, 4,5-dioctyloxyphthalic Acid]
solubility in toluene: greater than 1 weight percent
